Assay: xn = mol fraction of the nth substance listed
Settings: 333.15 K, Liquid

CCOS(=O)(=O)[O-].CCn1cc[n+](C)c1 [1-ethyl-3-methylimidazolium ethyl sulfate] + CO
mass density [kg/m3]
Settings | 2500 kPa | 5000 kPa | 10000 kPa | 15000 kPa | 20000 kPa | 25000 kPa | 30000 kPa | 35000 kPa
x1 = 0.04781 | – | 855.7 | 860.18 | 864.49 | 868.61 | 872.54 | 876.32 | 879.95
x1 = 0.1026 | 928.81 | 930.83 | 934.71 | 938.46 | 942.07 | 945.55 | 948.89 | 952.14
x1 = 0.1977 | 1014.54 | 1016.23 | 1019.48 | 1022.66 | 1025.73 | 1028.71 | 1031.6 | 1034.42
x1 = 0.2432 | 1043.81 | 1045.4 | 1048.48 | 1051.51 | 1054.43 | 1057.29 | 1060.06 | 1062.76
x1 = 0.3026 | 1075.11 | 1076.58 | 1079.47 | 1082.32 | 1085.07 | 1087.76 | 1090.37 | 1092.96
x1 = 0.3887 | 1109.48 | 1110.88 | 1113.59 | 1116.27 | 1118.87 | 1121.41 | 1123.9 | 1126.35
x1 = 0.485 | 1137.95 | 1139.28 | 1141.86 | 1144.4 | 1146.86 | 1149.29 | 1151.66 | 1153.97
x1 = 0.589 | 1161.11 | 1162.35 | 1164.82 | 1167.24 | 1169.62 | 1171.94 | 1174.22 | 1176.46
x1 = 0.7289 | 1184.59 | 1185.79 | 1188.13 | 1190.47 | 1192.77 | 1194.98 | 1197.18 | 1199.35
x1 = 0.8521 | 1199.19 | 1200.35 | 1202.62 | 1204.87 | 1207.1 | 1209.26 | 1211.4 | 1213.49
x1 = 0.9397 | 1209.04 | 1210.2 | 1212.45 | 1214.69 | 1216.87 | 1219.03 | 1221.13 | 1223.21

Source: the NIST ThermoML archive (doi:10.1016/j.jct.2007.11.011)
